# Measured values reported in ChEMBL document CHEMBL2407052, “7-Substituted-sulfocoumarins are isoform-selective, potent carbonic anhydrase II inhibitors” (Bioorg Med Chem, 2013).
# The source made the active and inactive calls. The rule behind the calls is not given here.
# Molecular target: Carbonic anhydrase 12 (Homo sapiens, UniProt O43570)
# Assay: Inhibition of human transmembrane carbonic anhydrase 12 after 6 hrs by stopped flow CO2 hydrase assay
# Carbonic anhydrase 12, sequence (O43570 whole entry): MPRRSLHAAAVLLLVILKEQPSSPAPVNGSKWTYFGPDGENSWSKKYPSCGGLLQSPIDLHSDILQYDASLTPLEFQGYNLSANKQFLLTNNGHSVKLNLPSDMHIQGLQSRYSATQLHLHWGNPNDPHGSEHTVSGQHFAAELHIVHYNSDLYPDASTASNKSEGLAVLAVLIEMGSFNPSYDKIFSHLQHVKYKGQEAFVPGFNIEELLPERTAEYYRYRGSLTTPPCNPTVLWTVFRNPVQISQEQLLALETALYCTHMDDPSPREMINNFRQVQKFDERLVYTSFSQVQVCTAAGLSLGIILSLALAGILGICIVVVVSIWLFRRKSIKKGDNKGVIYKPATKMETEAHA
row,SMILES,Ki
1,O=S1(=O)CC(O)c2ccc(O)cc2O1 (stereo not given),> 10 µM
2,O=C(Cc1ccc(Cl)cc1)Oc1ccc2c(c1)OS(=O)(=O)CC2,> 10 µM
3,O=C(Cc1ccccc1Br)Oc1ccc2c(c1)OS(=O)(=O)CC2,> 10 µM
4,CS(=O)(=O)Oc1ccc2c(c1)OS(=O)(=O)CC2,> 10 µM
5,O=S1(=O)CCc2ccc(O)cc2O1,> 10 µM
6,O=C(Cc1ccccc1Br)Oc1ccc2c(c1)OS(=O)(=O)C=C2,> 10 µM
7,O=C(Cc1ccc(Cl)cc1)Oc1ccc2c(c1)OS(=O)(=O)C=C2,> 10 µM
8,O=S1(=O)C=Cc2ccc(O)cc2O1,> 10 µM
9,CS(=O)(=O)Oc1ccc2c(c1)OS(=O)(=O)C=C2,> 10 µM
10,O=S1(=O)C=Cc2ccc(OCc3ccccc3)cc2O1,> 10 µM
11,O=S1(=O)CCc2ccc(OCc3ccccc3)cc2O1,> 10 µM
12,CC(=O)Oc1ccc2c(c1)OS(=O)(=O)CC2,> 10 µM
13,COc1ccc2c(c1)OS(=O)(=O)C=C2,> 10 µM
14,O=S1(=O)CC(O)c2ccc(OCc3ccccc3)cc2O1 (racemic),> 10 µM
15,COc1ccc2c(c1)OS(=O)(=O)CC2,> 10 µM
16,CC(=O)Oc1ccc2c(c1)OS(=O)(=O)C=C2,> 10 µM

# Molecular target: T1, Carbonic anhydrase 1 (Homo sapiens, UniProt P00915)
# Assay: Inhibition of human cytosolic carbonic anhydrase 1 up to 50 uM after 6 hrs by stopped flow CO2 hydrase assay
# Target sequence in this assay (P00915 2-261 limits assumed): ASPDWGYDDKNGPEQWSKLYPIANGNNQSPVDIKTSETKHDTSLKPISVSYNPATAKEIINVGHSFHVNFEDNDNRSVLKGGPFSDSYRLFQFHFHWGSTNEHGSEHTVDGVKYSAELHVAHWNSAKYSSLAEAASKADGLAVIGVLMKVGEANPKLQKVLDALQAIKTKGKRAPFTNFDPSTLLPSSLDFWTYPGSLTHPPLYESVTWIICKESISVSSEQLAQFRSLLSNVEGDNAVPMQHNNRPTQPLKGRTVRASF
row,SMILES,inhibition
1,O=S1(=O)CC(O)c2ccc(O)cc2O1 (stereo not given),inactive
2,O=C(Cc1ccc(Cl)cc1)Oc1ccc2c(c1)OS(=O)(=O)CC2,inactive
3,O=C(Cc1ccccc1Br)Oc1ccc2c(c1)OS(=O)(=O)CC2,inactive
4,CS(=O)(=O)Oc1ccc2c(c1)OS(=O)(=O)CC2,inactive
5,O=S1(=O)CCc2ccc(O)cc2O1,inactive
6,O=C(Cc1ccccc1Br)Oc1ccc2c(c1)OS(=O)(=O)C=C2,inactive
7,O=C(Cc1ccc(Cl)cc1)Oc1ccc2c(c1)OS(=O)(=O)C=C2,inactive
8,O=S1(=O)C=Cc2ccc(O)cc2O1,inactive
9,CS(=O)(=O)Oc1ccc2c(c1)OS(=O)(=O)C=C2,inactive
10,O=S1(=O)C=Cc2ccc(OCc3ccccc3)cc2O1,inactive
11,O=S1(=O)CCc2ccc(OCc3ccccc3)cc2O1,inactive
12,CC(=O)Oc1ccc2c(c1)OS(=O)(=O)CC2,inactive
13,COc1ccc2c(c1)OS(=O)(=O)C=C2,inactive
14,O=S1(=O)CC(O)c2ccc(OCc3ccccc3)cc2O1 (racemic),inactive
15,COc1ccc2c(c1)OS(=O)(=O)CC2,inactive
16,CC(=O)Oc1ccc2c(c1)OS(=O)(=O)C=C2,inactive

# Molecular target: T2, Carbonic anhydrase 9 (Homo sapiens, UniProt Q16790)
# Assay: Inhibition of human transmembrane carbonic anhydrase 9 up to 50 uM after 6 hrs by stopped flow CO2 hydrase assay
row,SMILES,inhibition
1,O=S1(=O)CC(O)c2ccc(O)cc2O1 (stereo not given),inactive
2,O=C(Cc1ccc(Cl)cc1)Oc1ccc2c(c1)OS(=O)(=O)CC2,inactive
3,O=C(Cc1ccccc1Br)Oc1ccc2c(c1)OS(=O)(=O)CC2,inactive
4,CS(=O)(=O)Oc1ccc2c(c1)OS(=O)(=O)CC2,inactive
5,O=S1(=O)CCc2ccc(O)cc2O1,inactive
6,O=C(Cc1ccccc1Br)Oc1ccc2c(c1)OS(=O)(=O)C=C2,inactive
7,O=C(Cc1ccc(Cl)cc1)Oc1ccc2c(c1)OS(=O)(=O)C=C2,inactive
8,O=S1(=O)C=Cc2ccc(O)cc2O1,inactive
9,CS(=O)(=O)Oc1ccc2c(c1)OS(=O)(=O)C=C2,inactive
10,O=S1(=O)C=Cc2ccc(OCc3ccccc3)cc2O1,inactive
11,O=S1(=O)CCc2ccc(OCc3ccccc3)cc2O1,inactive
12,CC(=O)Oc1ccc2c(c1)OS(=O)(=O)CC2,inactive
13,COc1ccc2c(c1)OS(=O)(=O)C=C2,inactive
14,O=S1(=O)CC(O)c2ccc(OCc3ccccc3)cc2O1 (racemic),inactive
15,COc1ccc2c(c1)OS(=O)(=O)CC2,inactive
16,CC(=O)Oc1ccc2c(c1)OS(=O)(=O)C=C2,inactive

# Molecular target: T1, Carbonic anhydrase 1
# Assay: Inhibition of human cytosolic carbonic anhydrase 1 after 6 hrs by stopped flow CO2 hydrase assay
# Target sequence in this assay (P00915 whole entry): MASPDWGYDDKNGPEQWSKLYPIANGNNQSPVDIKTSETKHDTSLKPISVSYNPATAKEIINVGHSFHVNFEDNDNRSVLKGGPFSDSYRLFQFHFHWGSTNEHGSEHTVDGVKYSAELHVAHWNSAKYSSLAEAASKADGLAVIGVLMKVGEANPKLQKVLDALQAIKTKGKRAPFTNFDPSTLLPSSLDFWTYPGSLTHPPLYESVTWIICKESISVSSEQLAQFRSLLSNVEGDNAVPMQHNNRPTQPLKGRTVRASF
row,SMILES,Ki
1,O=S1(=O)CC(O)c2ccc(O)cc2O1 (stereo not given),> 10 µM
2,O=C(Cc1ccc(Cl)cc1)Oc1ccc2c(c1)OS(=O)(=O)CC2,> 10 µM
3,O=C(Cc1ccccc1Br)Oc1ccc2c(c1)OS(=O)(=O)CC2,> 10 µM
4,CS(=O)(=O)Oc1ccc2c(c1)OS(=O)(=O)CC2,> 10 µM
5,O=S1(=O)CCc2ccc(O)cc2O1,> 10 µM
6,O=C(Cc1ccccc1Br)Oc1ccc2c(c1)OS(=O)(=O)C=C2,> 10 µM
7,O=C(Cc1ccc(Cl)cc1)Oc1ccc2c(c1)OS(=O)(=O)C=C2,> 10 µM
8,O=S1(=O)C=Cc2ccc(O)cc2O1,> 10 µM
9,CS(=O)(=O)Oc1ccc2c(c1)OS(=O)(=O)C=C2,> 10 µM
10,O=S1(=O)C=Cc2ccc(OCc3ccccc3)cc2O1,> 10 µM
11,O=S1(=O)CCc2ccc(OCc3ccccc3)cc2O1,> 10 µM
12,CC(=O)Oc1ccc2c(c1)OS(=O)(=O)CC2,> 10 µM
13,COc1ccc2c(c1)OS(=O)(=O)C=C2,> 10 µM
14,O=S1(=O)CC(O)c2ccc(OCc3ccccc3)cc2O1 (racemic),> 10 µM
15,COc1ccc2c(c1)OS(=O)(=O)CC2,> 10 µM
16,CC(=O)Oc1ccc2c(c1)OS(=O)(=O)C=C2,> 10 µM

# Molecular target: T2, Carbonic anhydrase 9
# Assay: Inhibition of human transmembrane carbonic anhydrase 9 after 6 hrs by stopped flow CO2 hydrase assay
row,SMILES,Ki
1,O=S1(=O)CC(O)c2ccc(O)cc2O1 (stereo not given),> 10 µM
2,O=C(Cc1ccc(Cl)cc1)Oc1ccc2c(c1)OS(=O)(=O)CC2,> 10 µM
3,O=C(Cc1ccccc1Br)Oc1ccc2c(c1)OS(=O)(=O)CC2,> 10 µM
4,CS(=O)(=O)Oc1ccc2c(c1)OS(=O)(=O)CC2,> 10 µM
5,O=S1(=O)CCc2ccc(O)cc2O1,> 10 µM
6,O=C(Cc1ccccc1Br)Oc1ccc2c(c1)OS(=O)(=O)C=C2,> 10 µM
7,O=C(Cc1ccc(Cl)cc1)Oc1ccc2c(c1)OS(=O)(=O)C=C2,> 10 µM
8,O=S1(=O)C=Cc2ccc(O)cc2O1,> 10 µM
9,CS(=O)(=O)Oc1ccc2c(c1)OS(=O)(=O)C=C2,> 10 µM
10,O=S1(=O)C=Cc2ccc(OCc3ccccc3)cc2O1,> 10 µM
11,O=S1(=O)CCc2ccc(OCc3ccccc3)cc2O1,> 10 µM
12,CC(=O)Oc1ccc2c(c1)OS(=O)(=O)CC2,> 10 µM
13,COc1ccc2c(c1)OS(=O)(=O)C=C2,> 10 µM
14,O=S1(=O)CC(O)c2ccc(OCc3ccccc3)cc2O1 (racemic),> 10 µM
15,COc1ccc2c(c1)OS(=O)(=O)CC2,> 10 µM
16,CC(=O)Oc1ccc2c(c1)OS(=O)(=O)C=C2,> 10 µM
